Experimental data from US6821751B2, “Hypoxia responsive transcription enhancer element from yeast” (The Brigham and Women's Hospital, Inc., priority 2001, dated 2004).
pIC50: −log10 of the molar value.

How the values were obtained:
LORE binding factor(s) = assay: Electrophoretic mobility shift assay (EMSA) with crude yeast extracts; design: species or system S. cerevisiae
Procedure: Haploid yeast (S. cerevisiae, strain RZ53-6 ) were cultured in 1-liter flasks containing 200 ml of YPD (1% yeast extract, 2% peptone, 2% dextrose) either under normoxic or hypoxic conditions, harvested at midlog phase (OD600=0.8), and lysed by vortexing with glass beads according to published protocols (Pfeifer, et al., Cell 49:9-18 (1987)). Following addition of ammonium sulfate to 40% and incubation on a rocker table at 4° C. for 30 minutes, the precipitate was collected by centrifugation at 14,000 rpm in a microfuge at 4° C. for 10 minutes. The pellet was resuspended in storage buffer (20 mM HEPES, pH8.0; 5 mM EDTA; 20% (v/v) glycerol; 1 mM PMSF; 7 mM β-mercaptoethanol) and stored frozen at −80° C. The soluble protein concentration was determined using a Bradford dye binding assay (BioRad, CA).
EMSAs were performed essentially as described by Carey (Carey, Methods Enzymol. 208:103-117 (1991)) utilizing synthetic paired oligonucleotides (e.g., 10-5′ and 10-3′) as a probe or a probe containing the LORE sequence made by PCR using p62::934 as the template with ^32P-labeled oligonucleotides 1-5′ and yd-10 (−397 to −234) as the primers. […] The concentration of each probe was determined on an ethidium bromide stained agarose-mini gel (Maniatis, et al., Molecular Cloning: A Laboratory Manual, Cold Spring Harbor Laboratory Press, Cold Spring Harbor, N.Y. (1982)). […]

[1] = test system: LORE-basal CYC1 promoter-lacZ; assay: microbe, parasite or virus in culture; type: cell-based, S. cerevisiae
Procedure: The construction of several of the OLE1 promoter-lacZ fusion deletion series has been described previously (Choi, et al., J. Biol. Chem. 271:3581-3589 (1996)). Construction of pAM6, pAM7, pAM10 and pAM16 vectors containing the OLE1 low oxygen response element (LORE) sequences −347 to −328 relative to the ATG translational start codon with the A of the codon designated as +1) was performed by inserting the synthetic paired oligonucleotides (10-5′ and 10-3′) into the XhoI restriction site of pTBA30, the CYC1 basal promoter-lacZ fusion vector. pAM16 contains one LORE copy in the −347 to −328 forward or (+) orientation 5′ to the basal CYC1 promoter-lacZ fusion. pAM7 has one LORE copy in the −328 to −347 reverse or (+) orientation. pAM6 contains a tandem repeat of the LORE in the (+) orientation. pAM10 was generated by inserting the synthetic paired oligonucleotides (yd-19 and yd-20) into the XhoI restriction site of pTBA30. The LORE in this plasmid has three mutations. Plasmid pAM4 is the p62::934 derivative with three nucleotide substitutions in the LORE region (-C342T, -T341A and -A339G) prepared utilizing three step PCR with oligonucleotides containing site-directed mutations. Two PCR reactions with appropriate pairs of mutant primers (PCR1 : yd-8 and yd-20 and PCR2: yd-19 and lacZ-3′) and Taq DNA polymerase were carried out as recommended by Roche Molecular Biochemicals (IN) in 100 μl reactions, using 1 ng of p62::934 as a template in a PTC-100 thermal cycler for 30 cycles (1 min at 94° C., 1 min at 55° C., 1 min at 72° C.), followed by 7 min at 72° C. The PCR products were purified from a 1.0% agarose gel using a Qiaex DNA extraction kit (Qiagen, Calif.). Then, PCR products 1 and 2 were annealed and amplified as above with primer yd-8 and lacZ-3′. The resulting PCR products were purified as above and digested with restriction enzymes HindIII and SalI. Finally this PCR product was cloned into HindIII and SalI pretreated p62::934 plasmid to generate pAM4. All the constructs were verified by DNA sequencing. […]

OLE1 mRNA = assay: Northern blot analysis of OLE1 mRNA; type: cell-based, S. cerevisiae; settings: for levels of OLE1 mRNA after transition metal in normoxia: increasing concentrations
Procedure: (§1) Yeast cells containing lacZ fusion plasmids were grown at 30° C. on uracil dropout medium containing dextrose (Treco, et al., In Current Protocols in Molecular Biology, Ausubel, et al., eds., pp. 13.2.1-13.2.12, John Wiley & Sons, New York (1997)). For unsaturated fatty acid repression analysis, yeast were grown in medium supplemented with 1% tergitol as described previously (Choi, et al., J. Biol. Chem. 271:3581-3589 (1996)). Cells were grown in the presence of UFAs for 6 hours prior to the β-galactosidase assays. Plasmid amplifications and bacterial transformations were performed using Escherichia coli strain DH5 (Invitrogene Corp.). Yeast transformations were performed by the method of Elble (BioTechniques 13:18-20 (1992)). Preparative cultures were grown aerobically in a shaker at 200 rpm (Innova 4000 incubator shaker, New Brunswick Scientific. NJ) at 30° C. to mid-logarithmic phase. For experiments assessing yeast under hypoxic conditions, mid-logarithmic phase preparative cultures were used to inoculate special air-tight flasks with inlet and outlet ports to allow for equilibration with the appropriate gas mixtures. Cultures were exposed to a continuous flow of hydrated medical grade nitrogen (BOC Gases, MA), unless otherwise specified, for 6 hours after inoculating the medium via the inlet port. Of note, medical grade nitrogen is contaminated with trace amounts of O2 (less than 1%). The percentage of saturated O2 in each flask was confirmed by using an oxygen monitor (G. C. Industries, Inc.) attached to the outlet port of each culture. […] Growth was monitored by measuring the yeast OD600 at the completion of each experiment.
(§2) Total yeast RNA was isolated as described previously (Collart, et al., In Current Protocols in Molecular Biology, Ausubel, et al., pp. 13.12.1-13.12.5, John Wiley & Sons, New York (1997)). Equal amounts (15 μg) of total RNA were analyzed by Northern blots according to standard procedures for separation of RNA using 1% formaldehyde gels (Collart, et al., In Current Protocols in Molecular Biology, Ausubel, et al., eds, pp. 13.12.1-13.12.5, John Wiley & Sons, New York (1997)). […] Northern blots were quantified using a phosphorimager (Molecular Dynamics) and autoradiographs were also prepared on X-OMAT AR film (Kodak, NY).
For the detection of OLE1 mRNA, a radiolabeled DNA probe was made using a 0.5 kb EcoRI fragment from the OLE1 protein coding sequence. […] The purified DNA fragments were labeled to high specific activity with [^32P]dCTP by the random primer extension method using Ready to Go DNA labeling beads (Amersham Pharmaceutical Biotech) reaction kit. […] Specific activity of labeled probes was determined by liquid scintillation counting.

[2] = test system: OLE1 promoter-lacZ fusion; assay: β-galactosidase assay of OLE1 promoter-lacZ fusion reporter (p62::934 and pAM4); type: cell-based, S. cerevisiae
Procedure: The construction of several of the OLE1 promoter-lacZ fusion deletion series has been described previously (Choi, et al., J. Biol. Chem. 271:3581-3589 (1996)). Construction of pAM6, pAM7, pAM10 and pAM16 vectors containing the OLE1 low oxygen response element (LORE) sequences −347 to −328 relative to the ATG translational start codon with the A of the codon designated as +1) was performed by inserting the synthetic paired oligonucleotides (10-5′ and 10-3′) into the XhoI restriction site of pTBA30, the CYC1 basal promoter-lacZ fusion vector. pAM16 contains one LORE copy in the −347 to −328 forward or (+) orientation 5′ to the basal CYC1 promoter-lacZ fusion. pAM7 has one LORE copy in the −328 to −347 reverse or (+) orientation. pAM6 contains a tandem repeat of the LORE in the (+) orientation. pAM10 was generated by inserting the synthetic paired oligonucleotides (yd-19 and yd-20) into the XhoI restriction site of pTBA30. The LORE in this plasmid has three mutations. Plasmid pAM4 is the p62::934 derivative with three nucleotide substitutions in the LORE region (-C342T, -T341A and -A339G) prepared utilizing three step PCR with oligonucleotides containing site-directed mutations. Two PCR reactions with appropriate pairs of mutant primers (PCR1 : yd-8 and yd-20 and PCR2: yd-19 and lacZ-3′) and Taq DNA polymerase were carried out as recommended by Roche Molecular Biochemicals (IN) in 100 μl reactions, using 1 ng of p62::934 as a template in a PTC-100 thermal cycler for 30 cycles (1 min at 94° C., 1 min at 55° C., 1 min at 72° C.), followed by 7 min at 72° C. The PCR products were purified from a 1.0% agarose gel using a Qiaex DNA extraction kit (Qiagen, Calif.). Then, PCR products 1 and 2 were annealed and amplified as above with primer yd-8 and lacZ-3′. The resulting PCR products were purified as above and digested with restriction enzymes HindIII and SalI. Finally this PCR product was cloned into HindIII and SalI pretreated p62::934 plasmid to generate pAM4. All the constructs were verified by DNA sequencing. The promoter deletion constructs were transformed into wild-type strain RZ53-6 for subsequent β-galactosidase assays.
Yeast cells containing lacZ fusion plasmids were grown at 30° C. on uracil dropout medium containing dextrose (Treco, et al., In Current Protocols in Molecular Biology, Ausubel, et al., eds., pp. 13.2.1-13.2.12, John Wiley & Sons, New York (1997)). For unsaturated fatty acid repression analysis, yeast were grown in medium supplemented with 1% tergitol as described previously (Choi, et al., J. Biol. Chem. 271:3581-3589 (1996)). Cells were grown in the presence of UFAs for 6 hours prior to the β-galactosidase assays. Plasmid amplifications and bacterial transformations were performed using Escherichia coli strain DH5 (Invitrogene Corp.). […]

ANB1 = assay: Expression of anaerobic yeast gene ANB1; type: cell-based, S. cerevisiae
TRX2 mRNA = assay: Northern blot analysis of TRX2 mRNA; type: cell-based, S. cerevisiae
Procedure: (§3) Yeast cells containing lacZ fusion plasmids were grown at 30° C. on uracil dropout medium containing dextrose (Treco, et al., In Current Protocols in Molecular Biology, Ausubel, et al., eds., pp. 13.2.1-13.2.12, John Wiley & Sons, New York (1997)). For unsaturated fatty acid repression analysis, yeast were grown in medium supplemented with 1% tergitol as described previously (Choi, et al., J. Biol. Chem. 271:3581-3589 (1996)). Cells were grown in the presence of UFAs for 6 hours prior to the β-galactosidase assays. Plasmid amplifications and bacterial transformations were performed using Escherichia coli strain DH5 (Invitrogene Corp.). […] Growth was monitored by measuring the yeast OD600 at the completion of each experiment.
as §2, with “NY). […]” for “NY).”

SUT1 = assay: Northern blot analysis of SUT1 expression; type: cell-based, S. cerevisiae
Procedure: as §3
as §2, with “NY). […]” for “NY).”

ATF1 = assay: Northern blot analysis of ATF1 mRNA; type: cell-based, S. cerevisiae
Procedure: as §3
as §2, with “NY). […]” for “NY).”

S. cerevisiae = type: cell-based; settings: any of the concentrations tested
Procedure: as §1, with “mixtures.” for “mixtures. Cultures were exposed to a continuous flow of hydrated medical grade nitrogen (BOC Gases, MA), unless otherwise specified, for 6 hours after inoculating the medium via the inlet port. Of note, medical grade nitrogen is contaminated with trace amounts of O2 (less than 1%). The percentage of saturated O2 in each flask was confirmed by using an oxygen monitor (G. C. Industries, Inc.) attached to the outlet port of each culture.”

How did the “hypoxia- or CoCl2-induced complex formation with end-labeled probe” value (LORE binding factor(s); crude extracts from hypoxia and cobalt treated yeast) turn out when “#8: paired oligonucleotides -387 to -368 of OLE1 promoter (SEQ ID NO:44/45) (chain 1 AGGTCTCTTCGCATAGTCG; chain 2 CGACTATGCGAAGAGAACCT; chemistry not given here)” was run?
Its value is “No specific hypoxia- or CoCl2-induced complex formation”.

Which “hypoxia-induced LORE complex formation (B1)” value (LORE binding factor(s); crude extracts from L.A.-treated yeast) does the source give for `CCCCC/C=C\C/C=C\CCCCCCCC(=O)O` [linoleic acid] here?
Its value is “significantly suppressed”.

What about the pIC50 ([1]; Saccharomyces cerevisiae, reporter pAM6 (two copies of LORE in tandem), UFA for 6 hours, read-out: IC50 of inhibition of lacZ reporter plasmid pAM6 expression) of the same compound?
Its pIC50 is ~4.70.

What about the “repression / dose-response inhibition of lacZ reporter pAM6 expression” value ([1]; normoxia-, hypoxia- and cobalt-induced expression, pAM6) of the same compound?
Its value is “strongly repress”.

What about the “OLE1 mRNA level after unsaturated fatty acid” value (OLE1 mRNA; Northern blot) of the same compound?
The value was “dramatically repressed”.

For `[Cl][Co][Cl]` [CoCl2, cobalt chloride], which “increase of reporter gene expression under cobalt-treated conditions” value ([1]; plasmid pAM6) is on record?
Its value is ~10 fold.

What about the “levels of OLE1 mRNA after transition metal in normoxia” value (OLE1 mRNA) of the same compound?
Its value is “increased levels”.

What about the “induction of reporter under cobalt-treated conditions in ROX1 deletion strain” value ([2]; reporter p62::934, strain RZ53-6 Δrox1) of the same compound?
The value was 5.1 fold increase.

What about the “CoCl2 dependent induction by reporter assay” value ([2]; reporter pAM4 (mutated LORE)) of the same compound?
The value was “not affected”.

What about the “expression of ANB1 with cobalt” value (ANB1) of the same compound?
The value was “not upregulated”.

And the “cobalt induction of TRX2 mRNA” value (TRX2 mRNA)?
The value was ~2.5 fold.

And the “induction of SUT1 expression by cobalt” value (SUT1)?
Its value is “no significant induction”.

And the “induction of ATF1 by cobalt treatment” value (ATF1)?
Its value is “induced”.

Which results are given for `c1cnc2c(c1)ccc1cccnc12` [1,10 Ph, 1,10-phenanthroline]?
cell growth (S. cerevisiae): unaffected; expression of OLE1 by Northern blot (OLE1 mRNA; exposure for six hours): dose dependent increase; gene expression after incubation with chelator ([2]; 6 hours of incubation, 2-8 μg/ml): substantially increase; expression of OLE1 by OLE1 promoter-lacZ reporter ([2]; exposure for six hours): dose dependent increase

How did the “levels of OLE1 mRNA after transition metal in normoxia” value (OLE1 mRNA) turn out when `[Cl][Ni][Cl]` [NiCl2, nickel chloride] was run?
The value was “increased levels”.
